Measurements taken from US7494996B2 (priority 2000, dated 2009).

How the values were obtained:
[1] = system: Pyricularia oryzae; assay: whole plant or invertebrate; format: in vivo; conditions: protectant, 300 g/ha, greenhouse; 100 is total disease control, 0 is no disease control
[2] = system: Mexican Bean Beetle; assay: Protocol 1 Mexican Bean Beetle (BB) foliar spray test; format: in vivo, Epilachna verivestis; conditions: control rated after 48 hours (100 = all larvae dead)
Method: (§1) A test solution containing 1250 parts per million (ppm) was prepared by dissolving the test compound in […] of a second solvent (acetone: water, 1:1) to give an acetone:water: methanol system of 50: 40:10.
(§2) The enclosed spraying chamber consisted of a single spray nozzle mounted on a boom moving at a fixed speed and distance over stationary targets. The vertical distance from the nozzle tip to the targets was adjusted to give rates varying from 150 g/ha to 600 g/ha
(§3) Individual fully expanded primary lima bean (Phaseolus limensis) leaves were placed bottom side up on moistened pieces of filter paper in Petri dishes. The leaves were sprayed with the test solutions and allowed to dry. The dishes were infested with 5 third instar larvae of the mexican bean beetle, covered with the lids, and held at 27° C. Bean beetle control was rated by visual inspection after 48 hours. […] A rating of 0 indicated no dead larvae and normal feeding. Intermediate control was indicated by intermediate ratings.

[3] = system: Sphaerotheca fuliginea; assay: Cucumber Powdery Mildew (CPM) protectant test in the greenhouse; format: in vivo; conditions: 300 g/ha, 100 is total disease control, 0 is no disease control
How it was run: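 Protectant format: one day after spraying with test compound (A/M/W 1:1:2), cotyledon-plus-one-leaf cucumber plants were misted with Sphaerotheca spores at 2×10^5/ml. Greenhouse disease development; percent control scored at day 7 (100 = total, 0 = none).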

[4] = system: Two-Spotted Spider Mite; assay: Protocol 1 Two-Spotted Spider Mite (MTA) foliar spray test; format: in vivo, Tetranychus urticae; conditions: percentage of mites killed 1-day post-treatment
Method: as §1, §2
A pad of moistened cotton was placed in a Petri dish. A 1-inch square section cut from a fully expanded primary lima bean (Phaseolus limensis) leaf was positioned bottom side up on the moist cotton. The leaf square was infested with approximately 50 adult female mites. The dishes were sprayed with the test solutions and held at 27° C. for mortality determination 1-day post-treatment. The percentage of mites killed were rated from 100% (all dead) to 0% (all alive).

[5] = system: Southern Armyworm; assay: Protocol 1 Southern Armyworm (AW) foliar spray test; format: in vivo, Spodoptera eridania
Method: as §1, §2
as §3, with “southern armyworm,” for “mexican bean beetle,”, “Armyworm” for “Bean beetle”

Compound | Rice Blast (RB) protectant fungicide data, percent control [1] [percent control] | BB ([2]; Protocol 1, DOSE 300) | Cucumber Powdery Mildew (CPM) protectant fungicide data, percent control [3] [percent control] | MTA ([4]; Protocol 1, DOSE 300) [%] | AW ([5]; Protocol 1, DOSE 300) | BB ([2]; Protocol 1, DOSE 150) | MTA ([4]; Protocol 1, DOSE 150) [%] | AW ([5]; Protocol 1, DOSE 150)
O=C1CNC(c2ccccc2)=NN1CC(F)(F)F [Compound 33] | 80 | 100 | 75 | 75 | 0 | – | – | –
O=c1cnc(-c2cc(Cl)cc(Cl)c2)nn1CC(F)(F)F [Compound 248] | 100 | – | 80 | – | – | 0 | 100 | 0
Cc1ccc(-c2ncc(=O)n(CC(F)(F)F)n2)cc1 [Compound 247] | 100 | 90 | 80 | 0 | 0 | – | – | –
CN1N=C(c2ccc(Cl)cc2)NCC1=O [Compound 27] | 80 | 75 | 99 | 0 | 0 | – | – | –
O=C1CNC(c2ccc(Cl)cc2)=NN1c1ccccc1 [Compound 29] | 90 | 0 | 90 | 90 | 0 | – | – | –
COc1cccc(-c2ncc(=O)n(CC(F)(F)F)n2)c1 [Compound 252] | 85 | – | 0 | – | – | 100 | 50 | 0
CCC(C)N1N=C(C2CCCCC2)NCC1=O (stereo not shown) [Compound 48] | 50 | – | 0 | – | – | 0 | 75 | 0
CC(=O)N1CC(=O)N(CC(F)(F)F)N=C1c1ccc(Cl)cc1 [Compound 40] | 90 | 50 | 0 | 90 | 0 | – | – | –
